# Test results as given in patent US6838436B1, “Inhibitors of proteasomal activity for stimulating bone growth” (Osteoscreen Inc., priority 1998, dated 2005).
# Where a SMILES comes first, the peptide text is derived from it. The star is where a group is joined. Cbz = O=C(OCc1ccccc1)*; OtBu = CC(C)(C)O*
# How the values were obtained:
# calvaria of normal mice = test: In vivo assay of effects on murine calvarial bone growth; parameters: species or system ICR Swiss white mice; details: for % Increase in Bone Area Compared with Control: p < 0.05; for % Increase in New Bone Width: p < 0.001
# Description: Male ICR Swiss white mice, aged 4-6 weeks and weighing 13-26 gm, are employed, using 4-5 mice per group. The calvarial bone growth assay is performed as described in PCT application WO95/24211, incorporated by reference. Briefly, the test compound or appropriate control vehicle is injected into the subcutaneous tissue over the right calvaria of normal mice. Typically, the control vehicle is the vehicle in which the compound was solubilized, and is PBS containing 5% DMSO or is PBS containing Tween (2 μl/10 ml). The animals are sacrificed on day 14 and bone growth measured by histomorphometry. Bone samples for quantitation are cleaned from adjacent tissues and fixed in 10% buffered formalin for 24-48 hours, decalcified in 14% EDTA for 1-3 weeks, processed through graded alcohols; and embedded in paraffin wax. Three to five μm sections of the calvaria are prepared, and representative sections are selected for histomorphometric assessment of the effects on bone formation and bone resorption. Sections are measured by using a camera lucida attachment to trace directly the microscopic image onto a digitizing plate. Bone changes are measured on sections cut 200 μm apart, over 4 adjacent 1×1 mm fields on both the injected and noninjected sides of the calvaria. New bone is identified by its characteristic woven structure, and osteoclasts and osteoblasts are identified by their distinctive morphology. Histomorphometry software (OsteoMeasure, Osteometrix, Inc., Atlanta) is used to process digitizer input to determine cell counts and measure areas or perimeters.
# Typical treatment regimens for testing utilize application of the compound to be tested over several days of repeated administration.
# PSI and MG-132 were assayed in vivo according to the procedure described previously (see “In vivo Assay of Effects of Compounds on Murine Calvarial Bone Growth”, supra). As a control, simvastatin provided a 1.5 fold increase in the number of osteoblasts.
# In one experiment, vehicle control, bFGF and varying doses of PSI were tested in the in vivo calvarial bone growth assay. The results are reported as a measurement of total bone area, % increase in area over vehicle control, and % increase in new bone width as shown below.
# [1] = tested on: hair follicles of skin explants; test: Skin explants from mice during telogen (Example 16); assay type: cell-based; details: 72 hours
# Source text: In the untreated control explants, the follicles were few and small.
# papain = target: T1, papain (Carica papaya, UniProt P00784); details: cited from earlier work
# T1 sequence (P00784 134-345): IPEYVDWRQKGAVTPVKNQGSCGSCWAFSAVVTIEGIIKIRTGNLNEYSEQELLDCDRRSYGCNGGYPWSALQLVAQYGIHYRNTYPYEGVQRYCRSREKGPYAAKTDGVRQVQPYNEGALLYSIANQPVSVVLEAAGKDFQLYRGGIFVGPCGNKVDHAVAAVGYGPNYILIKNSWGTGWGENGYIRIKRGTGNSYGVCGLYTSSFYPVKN
# calpain = details: cited from earlier work
# hair follicles [2] = test: Stimulation of hair growth after wax hair stripping, subcutaneous injection (Example 9); assay type: in vivo, Male Swiss ICR mice
# Description: Male Swiss ICR mice were first treated to remove hair from the scalp and dorsal regions as follows. Paraffin wax was liquefied by heating to 55° C. and the liquefied wax then applied by brush to the scalp and/or back (under anesthesia). The wax was allowed to solidify and then removed. The day following hair stripping, PSI (1 mg/kg/day) was injected subcutaneously three times a day for five days into the scalp and dorsal region. […] The mice were sacrificed on day 21 and histology was performed on the dermis of the scalp and of the dorsal region. […] Upon closer examination, it was observed that mice that had received only vehicle had quiescent hair follicles.
# hair follicles [3] = test: Effects on subcutaneous tissue of the scalp (Example 10); assay type: in vivo, ICR mice; details: 1 mg/kg body weight/day injected daily for 5 days; examined 16 days later
# Description: Effects of PS1 on subcutaneous tissue of the scalp of 6-weeks old ICR mice from longitudinal and transverse sections were determined. PS1 dissolved in 50% propylene glycol, 10% DMSO, and 40% distilled water was injected daily for 5 days (1 mg/kg body weight/day) into the subcutaneous tissue, and the tissue examined histologically 16 days later.
# hair follicles [4] = test: Topical administration of PSI, hair growth (Examples 13 and 14); assay type: in vivo, mice
# Description: PSI was prepared as a topical formulation, where the vehicle was 50% propylene glycol, 30% ethanol, 20% deionized water, at 0.1% concentration of PSI. The solution was applied 3 times a day for 5 days. The mice in a treated group were observed as compared to controls similarly treated with vehicle alone.
# When the protocol above was repeated using a 0.5% solution of PSI in groups containing 5 mice each, the number of hairs per 0.8 mm^2 was 60 in the treated mice versus about 10 in the control group. The percentage of follicle area in a region of about 0.8 mm was about 30% as an average in the treated group as compared to 15% as an average in the control group.
# In order to determine the minimal effective dosage of PSI, when used topically, a dose response curve for PSI was prepared. All experiments were preformed according to current good laboratory practice regulations (21CFR58). The mice were divided into 7 groups, 10 mice each, wherein one group was control treated only with vehicle and groups 1-6 with a series of increasing concentrations of PSI in a vehicle comprising 50% propylene glycol, 30% ethanol, 20% deionized water. The concentrations were 0.006%, 0.012%, 0.025%, 0.05%, 0.11% and 0.5%.
# The mice were anesthetized (50 μl Mouse Cocktail containing 3 ml ketamine, 2 ml small animal rompum, 5 ml NaCl), identified by ear punch code, weighed and the hair on the dorsal side removed by waxing as described in Example 6. After waxing, the animals were photographed. On the following day (day 1), 100 μl of PSI at the above concentrations in vehicle was brushed onto the area of removed hair. A similar application of PSI solution was performed daily for an additional 4 days.
# On Day 7 mice were anesthetized and a biopsy of the dorsal treatment area taken using a 6 mm dermal punch; the specimens were fixed in 10% buffered formalin and embedded in paraffin wax. Sections were cut using a standard microtome.
# Mice were monitored daily for signs of hair growth, and any hair growth was recorded by photography. On day 21 animals were euthanized (75 mg/kg body weight phenobarbital, IP injection), 2 cm hair samples were taken for optical based fiber analysis, and the remaining dorsal treatment area was fixed in 10% buffered formalin for further histological analysis. Analysis included quantification of hair thickness and quantification of mature hair follicles. Results were expressed as the mean=+/−the standard error of the mean. Data were analyzed by repeated measures of analysis of variance followed by the Tukey-Kramer post test P values of <0.05 were considered significant.
compound,measurement,setting,value
simvastatin,increase in the number of osteoblasts,"calvaria of normal mice; mouse, in vivo",1.5 fold
CC[C@H](C)[C@H](NC(=O)[C@H]([C@@H](C)CC)N(C)C(C)=O)C(=O)N[C@H](C(=O)N[C@@H](CC(C)C)C(=O)[C@@]1(C)CO1)[C@@H](C)O [Epoxomicin],hair follicle diameter and follicle elongation,[1]; 25 nM,"obvious increase in hair follicle diameter, and follicle elongation"
same,concentration up to which no inhibition appears,papain,> 50 µM
same,concentration up to which no inhibition appears,calpain,> 50 µM
"CC[C@H](C)[C@H](NC(=O)OCc1ccccc1)C(=O)N[C@@H](CCC(=O)OC(C)(C)C)C(=O)N[C@@H](C)C(=O)N[C@H](C=O)CC(C)C [PSI, N-carbobenzoyl-Ile-Glu-(OtBu)-Ala-Leu-CHO] (Cbz-IE(OtBu)AL-aldehyde)",hair follicle diameter and follicle elongation,[1]; 50 nM,"obvious increase in hair follicle diameter, and follicle elongation"
same,number of hair follicles versus control mice,"hair follicles [2]; 1 mg/kg/day subcutaneously three times a day for five days, day 7 dermal punch biopsy",large increase in the number of hair follicles
same,hair growth rate,"hair follicles [2]; 1 mg/kg/day subcutaneously, by day 18",hair growth rate greater than that of the mice in the control group
same,mature hair follicles in the lower region of the dermis,"hair follicles [2]; 1 mg/kg/day subcutaneously, day 21 histology",mature hair follicles in numbers much greater than in controls
same,numbers of hair follicles,hair follicles [3],numbers of hair follicles increased
same,size of the follicle diameter and the root sheath diameter,hair follicles [3],obvious increase in size of the follicle diameter and the root sheath diameter
same,effectiveness on hair growth,hair follicles [4]; 0.1% of PSI applied topically 3 times a day for 5 days (additional experiments),effective
same,thickness of hair and hair shaft,hair follicles [4]; topical,thicken both the hair and the hair shaft
same,percentage of follicle area in a region of about 0.8 mm,"hair follicles [4]; topical 0.5% solution of PSI, average, control 15%",about 30%
same,number of hairs per 0.8 mm^2,"hair follicles [4]; topical 0.5% solution of PSI, control about 10",60
same,hair growth relative to controls,"hair follicles [4]; topical, 0.1% PSI, 3 times a day for 5 days, day 16",stimulation of hair growth relative to the controls
same,minimal effective dose,"hair follicles [4]; topical, applied 1 time a day for 4 days",0.5%
same,histological examination of bone growth,calvaria of normal mice; 5 mg/kg/day and 1 mg/kg/day of PSI,confirmation of bone growth
same,Total Bone Area,calvaria of normal mice; PSI 0.1 mg/kg/day,0.74 ± 0.02 mm²
same,% Increase in Bone Area Compared with Control,calvaria of normal mice; PSI 0.1 mg/kg/day,21.7 ± 3.5%
same,Total Bone Area,calvaria of normal mice; PSI 1 mg/kg/day,0.83 ± 0.02 mm²
same,% Increase in New Bone Width,calvaria of normal mice; PSI 1 mg/kg/day,19.9 ± 2.0%
same,% Increase in Bone Area Compared with Control,calvaria of normal mice; PSI 1 mg/kg/day,35.4 ± 3.4%
same,Total Bone Area,calvaria of normal mice; PSI 5 mg/kg/day,0.79 ± 0.03 mm²
same,% Increase in New Bone Width,calvaria of normal mice; PSI 5 mg/kg/day,19.9 ± 4.4%
same,% Increase in Bone Area Compared with Control,calvaria of normal mice; PSI 5 mg/kg/day,32.1 ± 5.6%
